Results on 31 compounds are retold here after ChEMBL document CHEMBL1139445, “Synthesis of potent and selective 2-azepanone inhibitors of human tryptase” (Bioorg Med Chem Lett, 2004).

Each structure is given as a SMILES string. Several values for one entry are separate records, joined by “and”; a condition that tells them apart may be missing. Identical values can stand only once.

The first experiment concerns the target Tryptase (Homo sapiens, UniProt Q9BZJ3+Q15661+Q9NRR2). Description: Inhibition of human tryptase. The experiment is classed as protein assay.
The compound `NCc1ccccc1NC(=O)CN1CCCCC(NC(=O)c2ccc(-c3ccccc3)cc2)C1=O` (centres undefined) gave an IC50 above 33 µM.

`Cc1ccc(-c2ccc(C(=O)NC3CCCCN(CC(=O)Nc4cccc(CN)c4)C3=O)cc2)cc1` (centres undefined) showed an IC50 of 1.3 µM. Same read-out and setting: with `Nc1cccc(CNC(=O)CN2CCCCC(NC(=O)c3ccc(-c4ccccc4)cc3)C2=O)c1` (centres undefined) the figure was above 33 µM. Same read-out and setting: the figure for `NCCCCNC(=O)CN1CCCCC(NC(=O)c2ccc(-c3ccccc3)cc2)C1=O` (centres undefined) is above 33 µM; for `NCc1cccc(NC(=O)CN2CCCCC(NC(=O)COc3ccc4ccccc4c3)C2=O)c1` (centres undefined) it is 4.6 µM; for `NCc1cccc(CNC(=O)CN2CCCCC(NC(=O)c3ccc(-c4ccccc4)cc3)C2=O)c1` (centres undefined) it is 13 µM. The same measure, in the same setting: with `NCCc1ccc(NC(=O)CN2CCCCC(NC(=O)c3ccc(-c4ccccc4)cc3)C2=O)cc1` (centres undefined) the figure was 11 µM; with `NCc1cccc(NC(=O)CN2CCCCC(NC(=O)c3ccc(C4CCCCC4)cc3)C2=O)c1` (centres undefined), 0.98 µM; with `Nc1ccc(CNC(=O)CN2CCCCC(NC(=O)c3ccc(-c4ccccc4)cc3)C2=O)cc1` (centres undefined), above 33 µM. Regarding `NCc1cccc(NC(=O)CN2CCCCC(NC(=O)Cc3ccc(-c4ccccc4)cc3)C2=O)c1` (centres undefined), the IC50 is 5.2 µM. Still for that read-out and setting: with `NCc1cccc(NC(=O)CN2CCCCC(NC(=O)CC(c3ccccc3)c3ccccc3)C2=O)c1` (centres undefined) the figure was 0.2 µM. On to `CNCc1cccc(NC(=O)CN2CCCCC(NC(=O)c3ccc(-c4ccccc4)cc3)C2=O)c1` (centres undefined), for which the IC50 was above 33 µM. Still for that read-out and setting: with `NCC1CCC(NC(=O)CN2CCCCC(NC(=O)c3ccc(-c4ccccc4)cc3)C2=O)CC1` (centres undefined) the figure was 12 µM; with `O=C(CN1CCCCC(NC(=O)c2ccc(-c3ccccc3)cc2)C1=O)Nc1ccc2c(c1)CNCC2` (centres undefined), above 33 µM; with `NC1CCCc2ccc(NC(=O)CN3CCCCC(NC(=O)c4ccc(-c5ccccc5)cc4)C3=O)cc21` (centres undefined), above 33 µM. Take `NCCCCCCNC(=O)CN1CCCCC(NC(=O)c2ccc(-c3ccccc3)cc2)C1=O` (centres undefined): the IC50 was above 33 µM. The same measure, in the same setting: the figure for `NCCCCCNC(=O)CN1CCCCC(NC(=O)c2ccc(-c3ccccc3)cc2)C1=O` (centres undefined) is 12 µM; for `NCc1cccc(NC(=O)CN2CCCCC(NC(=O)c3ccc(-c4ccc(Cl)c(Cl)c4)cc3)C2=O)c1` (centres undefined) it is 2.1 µM; for `CCN(CC)Cc1cccc(NC(=O)CN2CCCCC(NC(=O)c3ccc(-c4ccccc4)cc3)C2=O)c1` (centres undefined) it is above 33 µM.

Consider `Cc1ccc(CN)cc1NC(=O)CN1CCCCC(NC(=O)c2ccc(-c3ccccc3)cc2)C1=O` (centres undefined), for which the IC50 was determined as 0.074 µM. In turn, `NC(=O)c1cccc(NC(=O)CN2CCCCC(NC(=O)c3ccc(-c4ccccc4)cc3)C2=O)c1` (centres undefined) gave an IC50 above 33 µM. The compound `NCc1cccc(NC(=O)CN2CCCCC(NC(=O)c3cnc4ccccc4c3)C2=O)c1` (centres undefined) showed an IC50 of 15 µM. On the same count and under the same terms, with `COc1ccc(CN)cc1NC(=O)CN1CCCCC(NC(=O)c2ccc(-c3ccccc3)cc2)C1=O` (centres undefined) the figure was 0.89 µM; with `NCc1ccc(NC(=O)CN2CCCCC(NC(=O)c3ccc(-c4ccccc4)cc3)C2=O)cc1` (centres undefined), 3.6 µM; with `NCc1cccc(NC(=O)CN2CCCCC(NC(=O)c3ccc(Cc4ccccc4)cc3)C2=O)c1` (centres undefined), 0.98 µM. Still for that read-out and setting: the figure for `CCc1ccc(-c2ccc(C(=O)NC3CCCCN(CC(=O)Nc4cccc(CN)c4)C3=O)cc2)cc1` (centres undefined) is 2.9 µM; for `NCc1ccc(Cl)c(NC(=O)CN2CCCCC(NC(=O)c3ccc(-c4ccccc4)cc3)C2=O)c1` (centres undefined) it is 0.038 µM. Same read-out and setting: with `O=C(CN1CCCCC(NC(=O)c2ccc(-c3ccccc3)cc2)C1=O)NCC1CCNCC1` (centres undefined) the figure was above 33 µM.

With `NCc1cccc(NC(=O)CN2CCCCC(NC(=O)c3ccc(-c4ccccc4)cc3)C2=O)c1` (centres undefined), the IC50 was 0.25 µM and > 0.25 µM. Same read-out and setting: the figure for `NCc1cccc(NC(=O)CN2CCCCC(NC(=O)CCCCc3ccccc3)C2=O)c1` (centres undefined) is 2.9 µM.

Compound `CCc1ccc(C(=O)NC2CCCCN(CC(=O)Nc3cccc(CN)c3)C2=O)cc1` (centres undefined) gave an IC50 of 4.6 µM.

The next experiment concerns the target Urokinase-type plasminogen activator (Homo sapiens, UniProt P00749). Description: Compound was tested for inhibition of human urokinase-type plasminogen activator.
`NCc1cccc(NC(=O)CN2CCCCC(NC(=O)CC(c3ccccc3)c3ccccc3)C2=O)c1` (centres undefined): the selectivity ratio was above 170. The same measure, in the same setting: with `Cc1ccc(CN)cc1NC(=O)CN1CCCCC(NC(=O)c2ccc(-c3ccccc3)cc2)C1=O` (centres undefined) the figure was above 450; with `NCc1ccc(Cl)c(NC(=O)CN2CCCCC(NC(=O)c3ccc(-c4ccccc4)cc3)C2=O)c1` (centres undefined), above 870. On to `NCc1cccc(NC(=O)CN2CCCCC(NC(=O)c3ccc(-c4ccccc4)cc3)C2=O)c1` (centres undefined), for which the selectivity ratio is above 130.

The target of another experiment is Serine protease 1 (Homo sapiens, UniProt P07477). Put plainly: Compound was tested for inhibition of human trypsin. On the set-up: reference not given here.
Chain of Serine protease 1 (P07477 whole entry): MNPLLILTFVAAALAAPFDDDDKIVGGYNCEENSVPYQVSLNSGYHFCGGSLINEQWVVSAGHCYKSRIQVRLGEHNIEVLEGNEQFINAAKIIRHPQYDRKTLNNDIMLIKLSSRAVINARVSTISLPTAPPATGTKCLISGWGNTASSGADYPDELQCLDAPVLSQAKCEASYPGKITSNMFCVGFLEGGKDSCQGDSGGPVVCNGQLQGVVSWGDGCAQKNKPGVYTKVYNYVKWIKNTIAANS
For the compound `NCc1cccc(NC(=O)CN2CCCCC(NC(=O)CC(c3ccccc3)c3ccccc3)C2=O)c1` (centres undefined), the selectivity ratio was above 170.

Consider `Cc1ccc(CN)cc1NC(=O)CN1CCCCC(NC(=O)c2ccc(-c3ccccc3)cc2)C1=O` (centres undefined), for which the selectivity ratio was above 450.

As to `NCc1ccc(Cl)c(NC(=O)CN2CCCCC(NC(=O)c3ccc(-c4ccccc4)cc3)C2=O)c1` (centres undefined), the selectivity ratio was found to be 360.

Take `NCc1cccc(NC(=O)CN2CCCCC(NC(=O)c3ccc(-c4ccccc4)cc3)C2=O)c1` (centres undefined): the selectivity ratio was above 130.

What is called IC50 is the point on the concentration scale where inhibition reaches its midpoint.
